Read-outs that look alike come from different tables or passages of the source.
Legend:
[1] = ref PubChem and ChemSpider; cited from earlier work
[2] = molecular target: T1, rFel d 1 (Felis catus, UniProt P30438+P30440); assay: 1-NPN displacement screening (fluorescence); type: binding, cat; settings: 1 µM rFel d 1, 1 μM 1-NPN, 2 µM competitive ligand
Description: (§1) N-Phenyl-1-naphthylamine (1-NPN) was used as a non-polar fluorescent probe in competitive binding experiments with the ligands (Sigma, France) to investigate binding efficiency of semiochemical analogs with pure rFel d 1 (INDOOR Biotechnologies, UK). The fluorescence experiments were performed on an FP-750 spectrofluorometer (JASCO, Japan) instrument at 25 °C in a right-angle configuration with a 1 cm light path fluorimeter quartz cuvette and 5-nm slits for both excitation and emission. The probe 1-NPN was excited at 337 nm and emission spectra were recorded between 380 and 450 nm, at 25 °C. The protein was dissolved in 50 mM Tris-HCl, pH 7.4, and ligands were added as 1 mM methanol solutions.
(§2) Semiochemicals were first screened for their capabilities to bind rFel d 1 using 1 µM of rFel d 1, 1 μM of 1-NPN, and 2 µM of a competitive ligand. […] IC50 was graphically determined from the dose–response curve of each competitor ligand.

[3] = molecular target: T1, rFel d 1; assay: Competitive binding assay with the fluorescent probe 1-NPN; parameters: species or system cat; settings: for IC50: 1 µM rFel d 1, 2 μM 1-NPN, 25 °C, 50 mM Tris-HCl pH 7.4, competitor 0–16 μM; for Kd: calculated from IC50 with K1-NPN […]
Description: Figure 2 Competitive binding of selected fatty acids (a) and steroids (b) to rFel d 1. […] Fluorescence of probe-protein complexes in the absence of a competitor was normalized to 100%.
as §1, §2

[4] = molecular target: T1, rFel d 1; assay: 1-NPN binding to rFel d 1 (fluorescence titration); parameters: species or system cat
Description: To a 1-µM solution of the protein in 50 mM Tris-HCl, pH 7.4, aliquots of 1 mM solution of 1-NPN in methanol were added to final concentrations of 1–20 µM. (a) The representative emission curves experimentally obtained. […] (b) The saturation binding curve obtained from the average of three experiments.
N-Phenyl-1-naphthylamine (1-NPN) was used as a non-polar fluorescent probe in competitive binding experiments with the ligands (Sigma, France) to investigate binding efficiency of semiochemical analogs with pure rFel d 1 (INDOOR Biotechnologies, UK) [30]. The fluorescence experiments were performed on an FP-750 spectrofluorometer (JASCO, Japan) instrument at 25 °C in a right-angle configuration with a 1 cm light path fluorimeter quartz cuvette and 5-nm slits for both excitation and emission. The probe 1-NPN was excited at 337 nm and emission spectra were recorded between 380 and 450 nm, at 25 °C. The protein was dissolved in 50 mM Tris-HCl, pH 7.4, and ligands were added as 1 mM methanol solutions.
The binding of 1-NPN to rFel d 1 was tested at two protein concentrations (1 µM and 2 µM) by titrating the protein solution with aliquots of a 1-mM solution of 1-NPN in methanol to final concentrations of 1–20 µM. The bound ligand was evaluated from the values of fluorescence intensity assuming that the protein was 100% active, with a stoichiometry of 1:1 protein: ligand. […]

T1 sequence (P30440 18-109): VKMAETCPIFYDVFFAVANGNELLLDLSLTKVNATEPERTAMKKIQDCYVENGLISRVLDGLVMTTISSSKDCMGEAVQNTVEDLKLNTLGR
T1 sequence (P30438 23-92): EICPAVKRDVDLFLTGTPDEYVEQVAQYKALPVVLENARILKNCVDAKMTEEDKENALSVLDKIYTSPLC

For CCCCCCCC/C=C\CCCCCCCC(=O)O [Oleic acid], the “Topological Polar Surface Area” value [1] is listed as 37.3 Å², the “1-NPN Displacement Screening” value [2] is listed as “Yes” and the IC50 [3] is listed as 10 µM. The Kd [3] was 7.7 µM.

For c1ccc(Nc2cccc3ccccc23)cc1 [1-NPN, N-phenyl-1-naphthylamine, reference compound], the Kd ([4]; 1 µM rFel d 1, 50 mM Tris-HCl pH 7.4, 1-NPN 1–20 µM, average of three experiments, read-out: dissociation constant of 1-NPN (GraphPad)) is listed as 5.8 µM, the Kd ([4]; 1 µM rFel d 1, Scatchard plot, read-out: dissociation constant K1-NPN (Scatchard analysis)) is listed as 4.8 µM and the “Topological Polar Surface Area” value [1] is listed as 12 Å².

With CCCCCCCCCC(=O)O [Capric acid] the “1-NPN Displacement Screening” value [2] was “No”.

In the case of CCCCCCCCCCCCCCO [Tetradecanol], the “Topological Polar Surface Area” value [1] is given as 20.2 Å² and the “1-NPN Displacement Screening” value [2] is given as “No”.

For CC(=O)[C@H]1CC[C@H]2[C@@H]3CC=C4C[C@@H](O)CC[C@]4(C)[C@H]3CC[C@]12C [Pregnenolone], the “Topological Polar Surface Area” value [1] is given as 37.3 Å², the “1-NPN Displacement Screening” value [2] is given as “Yes” and the IC50 ([3]; read-out: IC50) is given as 13.1 µM. For the same compound, the Kd ([3]; read-out: Kd) was 10.1 µM.

For CCCCCCCCCCCC(=O)O [Lauric acid], the “Topological Polar Surface Area” value [1] is listed as 37.3 Å², the “1-NPN Displacement Screening” value [2] is listed as “Yes” and the IC50 [3] is listed as 3.3 µM. It also gave a Kd [3] of 2.6 µM.

For CCCCCCCCCCCCO [Dodecanol], the “Topological Polar Surface Area” value [1] is listed as 20.2 Å² and the “1-NPN Displacement Screening” value [2] is listed as “No”.

In the case of CCCCCCCCCCCCCC(=O)O [Myristic acid], the “Topological Polar Surface Area” value [1] is given as 37.3 Å², the “1-NPN Displacement Screening” value [2] is given as “Yes” and the IC50 [3] is given as 14.4 µM. It also gave a Kd [3] of 11.1 µM.

In the case of C[C@]12CCC(=O)C=C1CC[C@@H]1[C@@H]2CC[C@]2(C)C(=O)CC[C@@H]12 [Androstenedione], the “Topological Polar Surface Area” value [1] is given as 34.1 Å² and the “1-NPN Displacement Screening” value [2] is given as “Yes”.

For CC(C)C(=O)O [Isobutyric acid], the “Topological Polar Surface Area” value [1] is given as 37.3 Å².

For CCCCCCCCC(N)=O [Nonanamide], the “Topological Polar Surface Area” value [1] is given as 43.1 Å².

In the case of C[C@]12CC[C@H](O)CC1=CC[C@@H]1[C@@H]2CC[C@]2(C)C(=O)CC[C@@H]12 [Dehydroepiandrosterone (DHEA), Dehydroepiandrosterone], the “Topological Polar Surface Area” value [1] is given as 37.3 Å² and the “1-NPN Displacement Screening” value [2] is given as “Yes”.

In the case of C[C@]12CC[C@H]3[C@@H](CCC4=CC(=O)CC[C@@]43C)[C@@H]1CC[C@@H]2O [Testosterone], the “Topological Polar Surface Area” value [1] is given as 37.3 Å² and the “1-NPN Displacement Screening” value [2] is given as “Yes”.

In the case of CCCCCCCCCCCC(=O)OCC [Ethyl Laurate], the “Topological Polar Surface Area” value [1] is listed as 26.3 Å² and the “1-NPN Displacement Screening” value [2] is listed as “No”.

For Deoxycorticosterone, the “Topological Polar Surface Area” value [1] is listed as 54.4 Å² and the “1-NPN Displacement Screening” value [2] is listed as “No”.

In the case of CCCCCCCCCCCCCCCC(=O)O [Palmitic acid], the “Topological Polar Surface Area” value [1] is listed as 37.3 Å², the “1-NPN Displacement Screening” value [2] is listed as “Yes” and the “affinity to rFel d 1 in words” value ([3]; competitive binding with 1-NPN, among the fatty acids) is listed as “weakest ligand”.

For C[C@]12C[C@H](O)[C@H]3[C@@H](CCC4=CC(=O)CC[C@@]43C)[C@@H]1CC[C@@H]2C(=O)CO [Corticosterone], the “Topological Polar Surface Area” value [1] is given as 74.6 Å² and the “1-NPN Displacement Screening” value [2] is given as “No”.

In the case of CCCCCCCCCCCC=O [Dodecanal], the “Topological Polar Surface Area” value [1] is given as 17.1 Å² and the “1-NPN Displacement Screening” value [2] is given as “No”.

In the case of CCCCCCCCCCCCCCCC(N)=O [Hexadecanamide], the “Topological Polar Surface Area” value [1] is listed as 43.1 Å².

In the case of CC(=O)[C@@]1(O)CC[C@H]2[C@@H]3CCC4=CC(=O)CC[C@]4(C)[C@H]3CC[C@@]21C [Hydroxyprogesterone], the “Topological Polar Surface Area” value [1] is listed as 54.4 Å² and the “1-NPN Displacement Screening” value [2] is listed as “Yes”.

In the case of CC12C=CCC1C1CCC3CC(=O)CCC3(C)C1CC2 (centres unmarked) [Androstenone], the “Topological Polar Surface Area” value [1] is listed as 17.1 Å², the “1-NPN Displacement Screening” value [2] is listed as “Yes” and the IC50 ([3]; read-out: IC50) is listed as 3.1 µM. For the same compound, the Kd ([3]; read-out: Kd) was 2.4 µM.

For C[C@]12CC[C@@H]3c4ccc(O)cc4CC[C@H]3[C@@H]1CCC2=O [Estrone], the “1-NPN Displacement Screening” value [2] was “Yes”.

In the case of CCCCCCCCCCCCCCCC(=O)OC [Methyl Palmitate], the “Topological Polar Surface Area” value [1] is listed as 26.3 Å² and the “1-NPN Displacement Screening” value [2] is listed as “No”.

For C[C@]12CC[C@@H]3c4ccc(O)cc4CC[C@H]3[C@@H]1CC[C@@H]2O [Estradiol], the “Topological Polar Surface Area” value [1] is listed as 40.5 Å² and the “1-NPN Displacement Screening” value [2] is listed as “Yes”.

For C[C@]12CCC(=O)C[C@@H]1CC[C@@H]1[C@@H]2CC[C@]2(C)[C@@H](O)CC[C@@H]12 [Dihydrotestosterone], the “Topological Polar Surface Area” value [1] is given as 37.3 Å² and the “1-NPN Displacement Screening” value [2] is given as “No”.

For CCCCC/C=C\C/C=C\CCCCCCCC(=O)O [Linoleic acid], the “Topological Polar Surface Area” value [1] is listed as 37.3 Å², the “1-NPN Displacement Screening” value [2] is listed as “Yes” and the IC50 [3] is listed as 10.1 µM. For the same compound, the Kd [3] was 7.8 µM.

For C[C@]12CC[C@@H](O)C[C@@H]1CC[C@@H]1[C@@H]2CC[C@]2(C)C=CC[C@@H]12 [Androstenol], the “Topological Polar Surface Area” value [1] is given as 20.2 Å² and the “1-NPN Displacement Screening” value [2] is given as “No”.

In the case of CC(=O)[C@H]1CC[C@H]2[C@@H]3CCC4=CC(=O)CC[C@]4(C)[C@H]3CC[C@]12C [Progesterone], the “Topological Polar Surface Area” value [1] is listed as 34.1 Å², the “1-NPN Displacement Screening” value [2] is listed as “Yes” and the IC50 [3] is listed as 13.6 µM. For the same compound, the Kd [3] was 10.5 µM.

For CCCCCCCCCCCCCCCCCC(N)=O [Octadecanamide], the “Topological Polar Surface Area” value [1] is given as 43.1 Å².
